Test results: patent publication US20070213283A1, “Macrolides substituted at the 4"-position” (priority 2003, published 2007)
Counter-ions that a name gives are not always drawn. Like-named read-outs stand apart in the source and are kept apart here.

Tests used:
Assay in all cases: MIC, standard broth dilution method in microtitre
Assay type in all cases: cell-based
[1] = tested on: erythromycin resistant strains of Streptococcus pyogenes
Experimental: (§1) Using a standard broth dilution method in microtitre, compounds were tested for antibacterial activity. The compounds in the above examples gave minimum inhibitory concentrations (MICs) less than 1 microgram per millilitre against erythromycin-sensitive and erythromycin-resistant strains of Streptococcus pneumoniae and Streptococcus pyogenes.

[2] = tested on: erythromycin resistant strains of Streptococcus pneumoniae
Experimental: as §1

[3] = tested on: S. pneumoniae SP030; conditions: Streptococcus pneumoniae
Experimental: as §1
(§2) In addition, the MIC (μg/mL) of test compounds against various organisms was determined including:
(§3) S. aureus Smith ATCC 13709, S. pneumoniae SP030, S. pyogenes 3565, E. faecalis ATCC 29212, H. influenzae ATCC 49247, M. catarrhalis ATCC 23246.

[4] = tested on: H. influenzae ATCC 49247; conditions: Haemophilus influenzae, ATCC49247
Experimental: as §1, §2, §3

[5] = tested on: S. aureus Smith ATCC 13709; conditions: Staphylococcus aureus, ATCC13709
Experimental: as §1, §2, §3

[6] = tested on: E. faecalis ATCC 29212; conditions: Enterococcus faecalis, ATCC29212
Experimental: as §1, §2, §3

[7] = tested on: M. catarrhalis ATCC 23246; conditions: Moraxella catarrhalis, ATCC23246
Experimental: as §1, §2, §3

[8] = tested on: S. pyogenes 3565; conditions: Streptococcus pyogenes
Experimental: as §1, §2, §3

[9] = H. influenzae ATCC 49247, broth dilution in microtitre, read-out: MIC

Row | Structure (SMILES) | MIC [1] | MIC [2] | MIC [3] | MIC [4, 9] | MIC [5] | MIC [6] | MIC [7] | MIC [8] | MIC [4]
1 | CC[C@@H]1OC(=O)[C@H](C)[C@H](O[C@@H]2C[C@](C)(OC)[C@H](OC(=O)CCNCCSc3ccc4c(c3)c(=O)c(C(=O)O)cn4CC)[C@H](C)O2)[C@@H](C)[C@H](O[C@@H]2O[C@H](C)C[C@H](N(C)C)[C@@H]2O)[C@](C)(O)C[C@H](C)CN(C)[C@@H](C)[C@@H]2OC(=O)O[C@@]12C [Example 11, 4″-O-{3-[2-(3-Carboxy-1-ethyl-4-oxo-1,4-dihydro-6-quinolinysulfanyl)ethylamino]propionyl}-azithromycin11,12-carbonate] | ≤ 0.25 mg/L | ≤ 0.25 mg/L | ≤ 1 mg/L | ≤ 2 mg/L | ≤ 1 mg/L | ≤ 1 mg/L | ≤ 2 mg/L | ≤ 1 mg/L | 
2 | CC[C@@H]1OC(=O)[C@H](C)[C@H](O[C@@H]2O[C@H](C)[C@H](OC(=O)CCNCCSc3ccc4c(c3)c(=O)c(C(=O)O)cn4CC)[C@@](C)(OC)O2)[C@@H](C)[C@H](O[C@H]2O[C@@H](C)C[C@@H](N(C)C)[C@H]2O)[C@](C)(OC)C[C@H](C)C(=O)[C@@H](C)[C@@H]2NC(=O)O[C@@]12C [Example 9, 4″-O-{3-[2-(3-Carboxy-1-ethyl-4-oxo-1,4-dihydro-quinolinylsulfanyl)ethylamino]propionyl}-6-O-methyl-11-desoxy-11-(R)amino-erythromycin A11,12-carbamate bis trifluoroacetate salt] | ≤ 0.25 mg/L | ≤ 0.25 mg/L | ≤ 1 mg/L |  | ≤ 1 mg/L | ≤ 1 mg/L | ≤ 2 mg/L | ≤ 1 mg/L | ≤ 2 mg/L
3 | CC[C@@H]1OC(=O)[C@H](C)[C@H](O[C@@H]2C[C@](C)(OC)[C@H](OC(=O)CCNCCSc3cnc4c(c3)c(=O)c(C(=O)O)cn4CC)[C@H](C)O2)[C@@H](C)[C@H](O[C@@H]2O[C@H](C)C[C@H](N(C)C)[C@@H]2O)[C@@](C)(OC)C[C@H](C)C(=O)[C@H](C)[C@@H](O)[C@]1(C)O [Example 5, 4″-O-{3-[2-(3-Carboxy-1-ethyl-4-oxo-1,4-dihydro-[1,8]naphthyridin-6-ylsulfanyl)ethylamino]propionyl}-6-O-methyl-erythromycin A monoformate salt] | ≤ 0.25 mg/L | ≤ 0.25 mg/L | ≤ 1 mg/L |  | ≤ 1 mg/L | ≤ 1 mg/L |  | ≤ 1 mg/L | 
4 | CC[C@@H]1OC(=O)[C@H](C)[C@H](O[C@@H]2C[C@](C)(OC)[C@H](OC(=O)CCNCCOc3cc4c5c(c3)c(=O)c(C(=O)O)cn5CCC4)[C@H](C)O2)[C@@H](C)[C@H](O[C@@H]2O[C@H](C)C[C@H](N(C)C)[C@@H]2O)[C@](C)(OC)C[C@H](C)C(=O)[C@H](C)[C@@H](O)[C@]1(C)O [Example 13, 4′-O-{3-[2-(6-Carboxy-7-oxo-2,3-dihydro-1H,7H-pyrido[3,2,1-ij]quinolin-9-yloxy)ethylamino]propionyl}-6-O-methyl-erythromycin A bis trifluoroacetate salt] | ≤ 0.25 mg/L | ≤ 0.25 mg/L | ≤ 1 mg/L |  | ≤ 1 mg/L | ≤ 1 mg/L | ≤ 2 mg/L | ≤ 1 mg/L | ≤ 2 mg/L
5 | CC[C@@H]1OC(=O)[C@H](C)[C@H](O[C@@H]2C[C@](C)(O)[C@H](OC(=O)CCNCCSc3ccc4c(c3)c(=O)c(C(=O)OC)cn4CC)[C@H](C)O2)[C@@H](C)[C@H](O[C@@H]2O[C@H](C)C[C@H](N(C)C)[C@@H]2O)[C@](C)(OC)C[C@H](C)C(=O)[C@H](C)[C@@H](O)[C@]1(C)O [Example 7, 4″-O-{3-[2-(3-Carboxyl-1-ethyl-4-oxo-1,4-dihydro-6-quinolinylsulfanyl)ethylamino]propionyl}-6-O-methyl-erythromycin A methyl ester] | ≤ 0.25 mg/L | ≤ 0.25 mg/L | ≤ 1 mg/L |  | ≤ 1 mg/L | ≤ 1 mg/L |  | ≤ 1 mg/L | 

Further lines, with some results ahead:

Row | MIC [1] | MIC [2] | MIC [3] | MIC [4, 9] | MIC [5] | MIC [6] | MIC [7] | MIC [8] | Structure (SMILES) | MIC [4]
6 | ≤ 0.25 mg/L | ≤ 0.25 mg/L | ≤ 1 mg/L | ≤ 2 mg/L | ≤ 1 mg/L | ≤ 1 mg/L | ≤ 2 mg/L | ≤ 1 mg/L | CC[C@H]1OC(=O)[C@H](C)[C@@H](O[C@H]2C[C@@](C)(OC)[C@@H](OC(=O)CCOCCOc3cc4c(=O)c(C(=O)O)cn(C5CC5)c4cc3Cl)[C@H](C)O2)[C@H](C)[C@@H](O[C@@H]2O[C@H](C)C[C@H](N(C)C)[C@H]2O)[C@](C)(O)C[C@@H](C)CN(C)[C@H](C)[C@@H](O)[C@]1(C)O [Example 27, 4″-O-{3-[2-(3-Carboxy-7-chloro-1-cyclopropyl-4-oxo-1,4-dihydro-quinolin-6-yloxy)ethoxy]-propionyl}-azithromycin] | 
7 | ≤ 0.25 mg/L | ≤ 0.25 mg/L | ≤ 1 mg/L | ≤ 2 mg/L | ≤ 1 mg/L | ≤ 1 mg/L | ≤ 2 mg/L | ≤ 1 mg/L | CC[C@H]1OC(=O)[C@H](C)[C@@H](O[C@H]2C[C@@](C)(OC)[C@@H](OC(=O)CCOCCNc3ccc4c(c3)c(=O)c(C(=O)O)cn4C3CC3)[C@H](C)O2)[C@@H](C)[C@@H](O[C@@H]2O[C@H](C)C[C@H](N(C)C)[C@H]2O)[C@](C)(O)C[C@@H](C)CN(C)[C@H](C)[C@@H](O)[C@]1(C)O [Example 19, 4″-O-{3-[2-(3-Carboxy-1-cyclopropyl-4-oxo-1,4-dihydro-6-quinolinylamino)ethoxy]propionyl}-azithromycin] | 
8 | ≤ 0.25 mg/L | ≤ 0.25 mg/L | ≤ 1 mg/L |  | ≤ 1 mg/L | ≤ 1 mg/L |  | ≤ 1 mg/L | CC[C@H]1OC(=O)[C@H](C)[C@@H](O[C@H]2C[C@@](C)(OC)[C@@H](OC(=O)CCOCCOc3cc4c(=O)c(C(=O)OCOC(=O)C(C)(C)C)cn(C5CC5)c4cc3Cl)[C@H](C)O2)[C@H](C)[C@@H](O[C@@H]2O[C@H](C)C[C@H](N(C)C)[C@H]2O)[C@](C)(O)C[C@@H](C)CN(C)[C@H](C)[C@@H](O)[C@]1(C)O [Example 28, 4″-O-(3-{2-[7-chloro-1-cyclopropyl-3-(2,2-dimethyl-propionyloxymethoxycarbonyl)-4-oxo-1,4-dihydro-quinolin-6-yloxy]-ethoxy}-propionyl)-azithromycin] | 
9 | ≤ 0.25 mg/L | ≤ 0.25 mg/L | ≤ 1 mg/L | ≤ 2 mg/L | ≤ 1 mg/L | ≤ 1 mg/L | ≤ 2 mg/L | ≤ 1 mg/L | CC[C@H]1OC(=O)[C@H](C)[C@@H](O[C@H]2C[C@@](C)(OC)[C@@H](OC(=O)CCOCCNc3cc4c(=O)c(C(=O)O)cn(C5CC5)c4cc3Cl)[C@H](C)O2)[C@@H](C)[C@@H](O[C@@H]2O[C@H](C)C[C@H](N(C)C)[C@H]2O)[C@](C)(O)C[C@@H](C)CN(C)[C@H](C)[C@@H](O)[C@]1(C)O [Example 18, 4″-O-{3-[2-(3-Carboxy-7-chloro-1-cyclopropyl-4-oxo-1,4-dihydro-4-quinolinylamino)ethoxy]propionyl}-azithromycin] | 
10 | ≤ 0.25 mg/L | ≤ 0.25 mg/L | ≤ 1 mg/L | ≤ 2 mg/L | ≤ 1 mg/L | ≤ 1 mg/L | ≤ 2 mg/L | ≤ 1 mg/L | CC[C@@H]1OC(=O)[C@H](C)[C@H](O[C@@H]2C[C@](C)(OC)[C@H](OC(=O)CCNCCOc3ccc4c(=O)c(C(=O)O)cn(CC)c4c3)[C@H](C)O2)[C@@H](C)[C@H](O[C@@H]2O[C@H](C)C[C@H](N(C)C)[C@@H]2O)[C@](C)(OC)C[C@H](C)C(=O)[C@H](C)[C@@H](O)[C@]1(C)O [Example 17, 4″-O-{3-[2-(3-Carboxy-1-ethyl-4-oxo-1,4-dihydro-7-quinolinyloxy)ethylamino]propionyl}-6-O-methyl-erythromycin A] | 
11 | ≤ 0.25 mg/L | ≤ 0.25 mg/L |  |  |  |  |  |  | CC[C@@H]1OC(=O)[C@H](C)[C@H](O[C@@H]2C[C@](C)(OC)[C@H](OC(=O)CCNCCOc3ccc4c(c3)c(=O)c(C(=O)O)cn4CC)[C@H](C)O2)[C@@H](C)[C@H](O[C@@H]2O[C@H](C)C[C@H](N(C)C)[C@@H]2O)[C@](C)(OC)C[C@H](C)C(=O)[C@H](C)[C@@H](O)[C@]1(C)O [Example 15, 4″-O-{3-[2-(3-Carboxy-1-ethyl-4-oxo-1,4-dihydro-6-quinolinyloxy)ethylamino]propionyl}-6-O-methyl-erythromycin A monoformate salt] | 
12 | ≤ 0.25 mg/L | ≤ 0.25 mg/L | ≤ 1 mg/L | ≤ 2 mg/L | ≤ 1 mg/L | ≤ 1 mg/L | ≤ 2 mg/L | ≤ 1 mg/L | CC[C@H]1OC(=O)[C@H](C)[C@@H](O[C@H]2C[C@@](C)(OC)[C@@H](OC(=O)CCOCCOc3ccc4c(c3)c(=O)c(C(=O)O)cn4C3CC3)[C@H](C)O2)[C@H](C)[C@@H](O[C@@H]2O[C@H](C)C[C@H](N(C)C)[C@@H]2O)[C@](C)(O)C[C@@H](C)CN(C)[C@H](C)[C@@H](O)[C@]1(C)O [Example 29, 4″-O-{3-[2-(3-Carboxy-1-cyclopropyl-4-oxo-1,4-dihydro-quinolin-6-yloxy)-ethoxy]-propionyl}-azithromycin] | 
